Experimental data reported in patent US20130116263A1, “PAK INHIBITORS FOR THE TREATMENT OF CELL PROLIFERATIVE DISORDERS” (AFRAXIS, INC., priority 2011, published 2013).

How the values were obtained:
Format in all cases: biochemical
PAK1 = PAK1 (Homo sapiens, UniProt Q13153); experiment: In vitro PAK inhibition assay (Z'-LYTE, SelectScreen), PAK1; settings: read-out: PAK1 IC50
Experimental: (§1) Compounds are screened in 1% DMSO (final) in the well. For 10 point titrations, 3-fold serial dilutions are conducted. All Peptide/Kinase Mixtures are diluted to a 2× working concentration in the appropriate Kinase Buffer
The 2×PAK1/Ser/Thr 19 mixture is prepared in 50 mM HEPES pH 7.5, 0.01% BRIJ-35, 10 mM MgCl2, 1 mM EGTA.
(§2) 1. Add the following solutions to a well in a 384-well plate: • 2.5 μL of 4× Test Compound OR (100 nL 100× Test Compound plus 2.4 μL kinase buffer) • 5 μL of 2× Peptide/Kinase (PAK) Mixture • 2.5 μL of 4×ATP Solution
(§3) 3. Incubate the PAK Kinase Reaction at room temperature for 60-minutes
(§4) 4. Add 5 μL of Development Reagent Solution to each well
(§5) 6. Incubate the Development Reaction for 60-minutes
(§6) 7. Determine the fluorescence using a fluorescence plate reader
(§7) SelectScreen® Kinase Profiling Service uses XLfit from IDBS.
(§8) The representative IC50 value with a known inhibitor for each kinase was determined at the ATP bin nearest to the ATP Km app.

PAK2 (PAK65) = PAK2 (PAK65) (Homo sapiens, UniProt Q13177); experiment: In vitro PAK inhibition assay (Z'-LYTE, SelectScreen), PAK2; settings: read-out: PAK2 IC50
Experimental: as §1
The 2×PAK2 (PAK65)/Ser/Thr 20 mixture is prepared in 50 mM HEPES pH 7.5, 0.01% BRIJ-35, 10 mM MgCl2, 1 mM EGTA. The final 10 μL Kinase Reaction consists of 0.29-6 ng PAK2 (PAK65) and 2 μM Ser/Thr 20 in 50 mM HEPES pH 7.5, 0.01% BRIJ-35, 10 mM MgCl2, 1 mM EGTA.
as §2, §3, §4, §5, §6, §7, §8

PAK3 = PAK3 (Homo sapiens, UniProt O75914); experiment: In vitro PAK inhibition assay (Z'-LYTE, SelectScreen), PAK3; settings: read-out: PAK3 IC50
Experimental: as §1
The 2×PAK3/Ser/Thr 20 mixture is prepared in 50 mM HEPES pH 7.5, 0.01% BRIJ-35, 10 mM MgCl2, 1 mM EGTA.
as §2, §3, §4, §5, §6, §7, §8

PAK4 = PAK4 (Homo sapiens, UniProt O96013); experiment: In vitro PAK inhibition assay (Z'-LYTE, SelectScreen), PAK4
Experimental: as §1
The 2×PAK-4/Ser/Thr 20 mixture is prepared in 50 mM HEPES pH 7.5, 0.01% BRIJ-35, 10 mM MgCl2, 1 mM EGTA. The final 10 μL Kinase Reaction consists of 0.1-0.75 ng PAK-4 and 2 μM Ser/Thr 20 in 50 mM HEPES pH 7.5, 0.01% BRIJ-35, 10 mM MgCl2, 1 mM EGTA. After the 1 hour Kinase Reaction incubation, 5 μL of a 1:256 dilution of Development Reagent A is added.
as §2, §3, §4, §5, §6
SelectScreen® Kinase Profiling Service uses XLfit from IDBS. The dose response curve is curve fit to model number 205 (sigmoidal dose-response model).
The table below provides specifications and data around each kinase. The representative IC50 value with a known inhibitor for each kinase was determined at the ATP bin nearest to the ATP Km app.

Chain of PAK2 (PAK65) (Q13177 whole entry): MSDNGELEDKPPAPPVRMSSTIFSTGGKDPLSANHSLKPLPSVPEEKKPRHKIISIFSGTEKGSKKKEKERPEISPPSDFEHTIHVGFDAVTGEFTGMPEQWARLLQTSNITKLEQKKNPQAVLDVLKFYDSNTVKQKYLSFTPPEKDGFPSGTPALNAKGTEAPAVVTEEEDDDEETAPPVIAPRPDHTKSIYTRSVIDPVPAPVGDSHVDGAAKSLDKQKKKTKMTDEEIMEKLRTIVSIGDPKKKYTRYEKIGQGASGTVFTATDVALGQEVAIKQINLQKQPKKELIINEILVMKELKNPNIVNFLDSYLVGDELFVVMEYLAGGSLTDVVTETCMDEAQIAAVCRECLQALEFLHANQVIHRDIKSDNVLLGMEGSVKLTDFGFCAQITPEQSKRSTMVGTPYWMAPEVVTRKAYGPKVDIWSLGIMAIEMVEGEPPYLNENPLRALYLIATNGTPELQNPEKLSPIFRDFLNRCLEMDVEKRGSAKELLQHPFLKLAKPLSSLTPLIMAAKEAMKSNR
Chain of PAK1 (Q13153 whole entry): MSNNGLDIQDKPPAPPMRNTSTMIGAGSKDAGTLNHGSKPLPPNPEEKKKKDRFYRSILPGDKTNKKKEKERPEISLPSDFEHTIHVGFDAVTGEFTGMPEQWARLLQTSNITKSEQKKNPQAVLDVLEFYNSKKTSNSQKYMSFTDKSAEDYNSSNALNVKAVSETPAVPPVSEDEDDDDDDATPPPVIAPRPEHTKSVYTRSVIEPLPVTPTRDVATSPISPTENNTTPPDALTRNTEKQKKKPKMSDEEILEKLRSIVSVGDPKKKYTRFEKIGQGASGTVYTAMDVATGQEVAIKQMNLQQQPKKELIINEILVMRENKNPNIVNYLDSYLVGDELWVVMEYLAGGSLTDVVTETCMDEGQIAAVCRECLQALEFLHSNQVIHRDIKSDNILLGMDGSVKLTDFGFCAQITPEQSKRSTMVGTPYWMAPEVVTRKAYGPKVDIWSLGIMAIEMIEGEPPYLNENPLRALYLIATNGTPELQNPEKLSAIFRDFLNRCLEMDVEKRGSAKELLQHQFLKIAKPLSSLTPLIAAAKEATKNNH
Chain of PAK4 (O96013 whole entry): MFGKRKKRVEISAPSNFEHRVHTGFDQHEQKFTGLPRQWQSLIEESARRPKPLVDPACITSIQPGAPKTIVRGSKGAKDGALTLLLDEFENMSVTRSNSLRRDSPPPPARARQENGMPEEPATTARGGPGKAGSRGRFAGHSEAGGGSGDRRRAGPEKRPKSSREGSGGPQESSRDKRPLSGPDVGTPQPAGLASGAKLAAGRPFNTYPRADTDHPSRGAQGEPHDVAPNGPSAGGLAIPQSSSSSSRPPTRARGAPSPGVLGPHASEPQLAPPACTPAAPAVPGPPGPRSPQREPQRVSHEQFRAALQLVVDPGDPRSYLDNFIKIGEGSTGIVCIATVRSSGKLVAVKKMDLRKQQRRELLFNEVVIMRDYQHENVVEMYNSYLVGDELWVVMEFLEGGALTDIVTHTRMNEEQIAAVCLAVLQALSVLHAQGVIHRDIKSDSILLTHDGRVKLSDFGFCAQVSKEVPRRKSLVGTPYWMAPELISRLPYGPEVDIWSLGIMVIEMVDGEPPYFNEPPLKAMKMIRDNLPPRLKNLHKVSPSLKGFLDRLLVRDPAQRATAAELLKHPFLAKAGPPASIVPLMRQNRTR
Chain of PAK3 (O75914 1-544 isoform O75914-2): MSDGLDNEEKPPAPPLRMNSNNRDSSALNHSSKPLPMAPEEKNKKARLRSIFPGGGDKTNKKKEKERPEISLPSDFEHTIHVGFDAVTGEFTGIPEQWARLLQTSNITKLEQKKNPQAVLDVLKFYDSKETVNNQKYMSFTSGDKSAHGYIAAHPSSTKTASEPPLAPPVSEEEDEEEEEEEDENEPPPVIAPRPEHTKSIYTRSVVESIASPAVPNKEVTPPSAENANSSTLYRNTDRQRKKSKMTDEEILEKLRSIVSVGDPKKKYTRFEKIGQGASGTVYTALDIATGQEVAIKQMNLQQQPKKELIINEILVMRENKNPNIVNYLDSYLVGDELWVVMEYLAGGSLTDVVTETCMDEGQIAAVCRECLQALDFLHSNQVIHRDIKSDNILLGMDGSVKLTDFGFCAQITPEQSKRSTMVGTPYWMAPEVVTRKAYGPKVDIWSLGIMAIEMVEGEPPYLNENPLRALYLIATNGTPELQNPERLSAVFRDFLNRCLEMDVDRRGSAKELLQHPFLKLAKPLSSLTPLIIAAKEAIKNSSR

SMILES	IC50 (PAK1)	IC50 (PAK2 (PAK65))	IC50 (PAK3)	IC50 (PAK4)
CCn1c(=O)c(-c2ccc(-c3cncc(C)n3)cc2Cl)cc2cnc(NCCC3CCNCC3)nc21 [Example 135]	< 50 nM	< 50 nM	< 50 nM	> 5000 nM
Cc1nc(-c2ccc(-c3cc4cnc(NC5CCOCC5)nc4[nH]c3=O)c(Cl)c2)no1 [Example 11]	50 to 500 nM	50 to 500 nM	50 to 500 nM	> 5000 nM
CCn1c(=O)c(-c2ccc(-c3nccnc3C)cc2Cl)cc2cnc(NCCN(C)C)nc21 [Example 13]	500 to 5000 nM	500 to 5000 nM	500 to 5000 nM	> 5000 nM
CCn1c(=O)c(-c2ccc(-c3cccnc3F)cc2Cl)cc2cnc(N[C@H]3CCOC3)nc21 [Example 41]	< 50 nM	50 to 500 nM	50 to 500 nM	> 5000 nM
Cc1cncc(-c2ccc(-c3cc4cnc(N[C@H]5CCOC5)nc4n(CCCN)c3=O)c(Cl)c2)n1 [Example 98]	< 50 nM	< 50 nM	< 50 nM	> 5000 nM
Cc1nccnc1-c1ccc(-c2cc3cnc(N[C@H]4CCOC4)nc3n(Cc3ccccn3)c2=O)c(Cl)c1 [Example 125]	< 50 nM	< 50 nM	50 to 500 nM	> 5000 nM
Cc1nccnc1-c1ccc(-c2cc3cnc(NC4CCOCC4)nc3n(C3CCCC3)c2=O)c(Cl)c1 [Example 88, 6-(2-chloro-4-(3-methylpyrazin-2-yl)phenyl)-8-cyclopentyl-2-((tetrahydro-2H-pyran-4-yl)amino)pyrido[2,3-d]pyrimidin-7(8H)-one]	50 to 500 nM	50 to 500 nM	50 to 500 nM	> 5000 nM
Cc1cncc(-c2ccc(-c3cc4cnc(N[C@H]5CCOC5)nc4n(CCCN(C)C)c3=O)c(Cl)c2)n1 [Example 102]	< 50 nM	< 50 nM	50 to 500 nM	> 5000 nM
Cc1cncc(-c2ccc(-c3cc4cnc(NCC(C)C)nc4n([C@H]4CC[C@H](N)CC4)c3=O)c(Cl)c2)n1 [Example 115]	< 50 nM	< 50 nM	< 50 nM	500 to 5000 nM
CCn1c(=O)c(-c2ccc(-c3cnccc3C)cc2Cl)cc2cnc(N[C@@H]3CCOC3)nc21 [Example 49]	50 to 500 nM	500 to 5000 nM	500 to 5000 nM	> 5000 nM
CCn1c(=O)c(-c2ccc(-c3nccnc3C)cc2Cl)cc2cnc(NC3CCOC(C)C3)nc21 (stereo not shown) [Example 32]	50 to 500 nM	< 50 nM	50 to 500 nM	> 5000 nM
CCn1c(=O)c(-c2ccc(-c3cncc(C)n3)cc2Cl)cc2cnc(N[C@H]3CC[C@H](CN)CC3)nc21 [Example 87]	< 50 nM	< 50 nM	< 50 nM	> 5000 nM
Cc1cncc(-c2ccc(-c3cc4cnc(N[C@H]5CCOC5)nc4n(C4CCN(C)CC4)c3=O)c(Cl)c2)n1 [Example 108]	50 to 500 nM	50 to 500 nM	50 to 500 nM	> 5000 nM
CCn1c(=O)c(-c2ccc(-c3cncc(C)n3)cc2Cl)cc2cnc(N[C@@H]3CCOC3)nc21 [Example 28]	< 50 nM	< 50 nM	50 to 500 nM	> 5000 nM
CCn1c(=O)c(-c2ccc(-c3nccnc3C)cc2Cl)cc2cnc(N[C@@H]3CCOC3)nc21 [Example 58]	50 to 500 nM	50 to 500 nM	500 to 5000 nM	> 5000 nM
CCNc1ncc2cc(-c3ccc(-c4nccnc4C)cc3Cl)c(=O)n(CC)c2n1 [Example 6]	50 to 500 nM	50 to 500 nM	50 to 500 nM	> 5000 nM
Cc1cncc(-c2ccc(-c3cc4cnc(NCC5CC5)nc4n([C@H]4CC[C@H](N)CC4)c3=O)c(Cl)c2)n1 [Example 113]	< 50 nM	< 50 nM	< 50 nM	500 to 5000 nM
CCn1c(=O)c(-c2ccc(-c3cncc(C)n3)cc2Cl)cc2cnc(NCC3CCC(N)CC3)nc21 (stereo not shown) [Example 131]	< 50 nM	< 50 nM	50 to 500 nM	> 5000 nM
CCN(CC)CCn1c(=O)c(-c2ccc(-c3cncc(C)n3)cc2Cl)cc2cnc(N[C@@H]3CCOC3)nc21 [Example 96]	50 to 500 nM	50 to 500 nM	500 to 5000 nM	> 5000 nM

SMILES	IC50 (PAK1)	IC50 (PAK2 (PAK65))	IC50 (PAK3)	IC50 (PAK4)
CCn1c(=O)c(-c2ccc(-c3nccnc3C)cc2Cl)cc2cnc(NC3CCNCC3)nc21 [Example 79]	500 to 5000 nM	500 to 5000 nM	500 to 5000 nM	> 5000 nM
CCn1c(=O)c(-c2ccc(-c3nccnc3C)cc2Cl)cc2cnc(N[C@@H]3CCOC(C)(C)C3)nc21 (stereo in doubt) [Example 76]	< 50 nM	< 50 nM	50 to 500 nM	> 5000 nM
Cc1cncc(-c2ccc(-c3cc4cnc(NC5CC5)nc4n([C@H]4CC[C@H](N)CC4)c3=O)c(Cl)c2)n1 [Example 112]	< 50 nM	< 50 nM	< 50 nM	500 to 5000 nM
Cc1nccnc1-c1ccc(-c2cc3cnc(NC4CCOCC4)nc3[nH]c2=O)c(Cl)c1 [Example 10]	50 to 500 nM	50 to 500 nM	500 to 5000 nM	> 5000 nM
Cc1cncc(-c2ccc(-c3cc4cnc(NC5CCOCC5)nc4n(C4CCCC4)c3=O)c(Cl)c2)n1 [Example 89]	50 to 500 nM	50 to 500 nM	50 to 500 nM	> 5000 nM
Cc1nccnc1-c1ccc(-c2cc3cnc(NC4CCOCC4)nc3n(C)c2=O)c(Cl)c1 [Example 9]	50 to 500 nM	50 to 500 nM	50 to 500 nM	> 5000 nM
CCn1c(=O)c(-c2ccc(-c3nccnc3C)cc2Cl)cc2cnc(NC3CCOC3)nc21 (stereo not shown) [Example 15]	50 to 500 nM	50 to 500 nM	50 to 500 nM	> 5000 nM
CCn1c(=O)c(-c2ccc(-c3cncc(C)n3)cc2Cl)cc2cnc(NC3CCOCC3)nc21 [Example 7]	< 50 nM	< 50 nM	50 to 500 nM	> 5000 nM
CCn1c(=O)c(-c2ccc(-c3nccnc3C)cc2Cl)cc2cnc(NCCC3CCN(C)CC3)nc21 [Example 91]	< 50 nM	< 50 nM	50 to 500 nM	> 5000 nM
Cc1cncc(-c2ccc(-c3cc4cnc(NC5CCOCC5)nc4n(Cc4ccccc4Cl)c3=O)c(Cl)c2)n1 [Example 42]	< 50 nM	50 to 500 nM	50 to 500 nM	> 5000 nM
Cc1nccnc1-c1ccc(-c2cc3cnc(N[C@@H]4CCOC4)nc3n(Cc3ccccn3)c2=O)c(Cl)c1 [Example 123]	50 to 500 nM	< 50 nM	50 to 500 nM	> 5000 nM
Cc1cnc(-c2ccc(-c3cc4cnc(NC5CCOCC5)nc4[nH]c3=O)c(Cl)c2)s1 [Example 14]	> 5000 nM	> 5000 nM	50 to 500 nM	> 5000 nM
Cc1cncc(-c2ccc(-c3cc4cnc(NC5CCCCC5)nc4n([C@H]4CC[C@H](N)CC4)c3=O)c(Cl)c2)n1 [Example 114]	< 50 nM	< 50 nM	50 to 500 nM	> 5000 nM
CCn1c(=O)c(-c2ccc(-c3nccnc3C)cc2Cl)cc2cnc(NC3CCN(C(C)=O)C3)nc21 (stereo not shown) [Example 19]	50 to 500 nM	50 to 500 nM	500 to 5000 nM	> 5000 nM
Cc1cncc(-c2ccc(-c3cc4cnc(NC5CCCC5)nc4n([C@H]4CC[C@H](N)CC4)c3=O)c(Cl)c2)n1 [Example 118]	< 50 nM	< 50 nM	< 50 nM	500 to 5000 nM
Cc1cncc(-c2ccc(-c3cc4cnc(N[C@@H]5CCOC5)nc4n(CCCN(C)C)c3=O)c(Cl)c2)n1 [Example 101]	< 50 nM	< 50 nM	50 to 500 nM	> 5000 nM
CCn1c(=O)c(-c2ccc(-c3cnccn3)cc2Cl)cc2cnc(N[C@@H]3CCOC3)nc21 [Example 60]	50 to 500 nM	50 to 500 nM	500 to 5000 nM	> 5000 nM
CCn1c(=O)c(-c2ccc(-c3cnc(C)cn3)cc2Cl)cc2cnc(N[C@@H]3CCOC3)nc21 [Example 50]	50 to 500 nM	50 to 500 nM	500 to 5000 nM	> 5000 nM
